Assay results from patent US20250186491A1, “COMPOSITIONS AND METHODS FOR TREATING CANCER WITH CHIMERIC TIM RECEPTORS IN COMBINATION WITH INHIBITORS OF POLY (ADP-RIBOSE) POLYMERASE” (CERO THERAPEUTICS HOLDINGS, INC., priority 2020, published 2025).

How the values were obtained:
[1] = system: Kuramochi ovarian cancer cells; assay: Kuramochi cell number under PARP inhibitors, tracked via imaging; format: cell-based, human; conditions: for EC50 values (ranking), number of Kuramochi cells: five PARP inhibitors compared; for elimination of the Kuramochi culture: by t=50 h
Experimental: Kuramochi ovarian cancer cells expressing an mCherry-NLS plasmid were incubated with 0.78 to 100 uM of the PARP inhibitor Niraparib. The number of Kuramochi cells/well was tracked via imaging.

A2780-mCh-NLS cells = conditions: FIG. 11A
Experimental: (§1) Flow cytometry measurement of surface PS: A2780-mCh-NLS cells were treated with […] Niraparib or with equivalent volume of DMSO (control). 48 hours later samples were trypsinized and stained using a Tim4-Fc followed by a fluorescently-labeled secondary antibody to the Tim4-Fc. Samples were immediately analyzed via Flow cytometry.

Kuramochi cells = system: Kuramochi cells
Experimental: FIG. 8A: Flow cytometry measurement of surface PtdSer. Kuramochi cells were treated with 1.56 or 25 μM Niraparib or with equivalent volume of DMSO (control). 48 hours later samples were trypsinized and stained using a Tim4-Fc followed by a fluorescently-labeled secondary anti body to the Tim4-Fc. FIG. 8B: Kuramochi cells pre-treated for ˜20 hours with 1.56 μM Niraparib were co-cultured with pCTX133 and Untransduced CD4 T cells from donor 32 at a 2:1 T cell:Kuramochi ratio and a final Niraparib concentration of 1.56 μM. […] All data were collected via IncuCyte.
as §1

Cn1ncnc1[C@H]1c2n[nH]c(=O)c3cc(F)cc(c23)N[C@@H]1c1ccc(F)cc1 [Talazoparib]
EC50 values (ranking), number of Kuramochi cells ([1]; t=50 h, FIG. 1B): most sensitive EC50 values

CNCc1ccc(-c2[nH]c3cc(F)cc4c3c2CCNC4=O)cc1 [Rucaparib]
elimination of the Kuramochi culture ([1]; FIG. 1B): almost eliminate the Kuramochi culture

C[C@]1(c2nc3c(C(N)=O)cccc3[nH]2)CCCN1 [Veliparib]
impact on the number of detected Kuramochi cells ([1]; t=50 h, of the five PARP inhibitors tested, FIG. 1B): least impact

NC(=O)c1cccc2cn(-c3ccc([C@@H]4CCCNC4)cc3)nc12 [Niraparib]
number of Kuramochi cells in culture ([1]; Niraparib 0.78 to 100 uM, t=50, FIG. 1A): decreases monotonically with increasing Niraparib concentration | elimination of the Kuramochi culture ([1]; FIG. 1B): almost eliminate the Kuramochi culture | EC50 values (ranking), number of Kuramochi cells ([1]; t=50 h, FIG. 1B): most sensitive EC50 values | Tim4-Fc MFI (A2780-mCh-NLS cells; 1.56 and 25 μM Niraparib vs DMSO): increase | concentration at which anti-tumor effect begins (A2780-mCh-NLS cells): at least 1.56 μM | membrane phospholipid symmetry (Ptd-Ser exposure) (Kuramochi cells; BRCA-2 mutated Kuramochi, brief exposure, 1.56 or 25 μM, FIG. 8A): elicits changes in membrane phospholipid symmetry, in a dose dependent manner | growth of Kuramochi cells (Kuramochi cells; FIG. 8A): effective in inhibiting growth | Tim4-Fc MFI (Kuramochi cells; Kuramochi, 25 μM Niraparib vs DMSO, FIG. 11B): increase | concentration at which anti-tumor effect begins (Kuramochi cells; Kuramochi, FIG. 11B): at least 25 μM
